Test results as given in ChEMBL document CHEMBL4507307 (2021).
Active and inactive are the calls of the source. The calls are words filed in the database; no cut-off is given here.

What was measured:
[1] = target: Dual specificity tyrosine-phosphorylation-regulated kinase 1A (Homo sapiens, UniProt Q13627); assay: NanoBRET (SGC Frankfurt) (DYRK1A)
[2] = target: Alpha-1B adrenergic receptor (Homo sapiens) (UniProt P35368); conditions: Compound concentration 10.0 uM
[3] = target: Histamine H4 receptor (Homo sapiens) (UniProt Q9H3N8); conditions: Compound concentration 10.0 uM
[4] = target: Muscarinic acetylcholine receptor M3 (Homo sapiens) (UniProt P20309); conditions: Compound concentration 10.0 uM
[5] = target: Muscarinic acetylcholine receptor M5 (Homo sapiens) (UniProt P08912); conditions: Compound concentration 10.0 uM
[6] = target: Beta-2 adrenergic receptor (Homo sapiens) (UniProt P07550); conditions: Compound concentration 10.0 uM
D(3) dopamine receptor = D(3) dopamine receptor (Homo sapiens, UniProt P35462); conditions: Compound concentration 10.0 uM
[7] = target: Histamine H3 receptor (Homo sapiens) (UniProt Q9Y5N1); conditions: Compound concentration 10.0 uM
[8] = target: 5-hydroxytryptamine receptor 2B (Homo sapiens) (UniProt P41595); conditions: Compound concentration 10.0 uM
Mu-type opioid receptor = Mu-type opioid receptor (Homo sapiens, UniProt P35372); conditions: Compound concentration 10.0 uM
[9] = target: Sigma intracellular receptor 2 (Homo sapiens, UniProt Q5BJF2); conditions: Compound concentration 10.0 uM
[10] = target: Sodium-dependent dopamine transporter (Homo sapiens) (UniProt Q01959); conditions: Compound concentration 10.0 uM
[11] = target: 5-hydroxytryptamine receptor 2A (Homo sapiens, UniProt P28223); conditions: Compound concentration 10.0 uM
[12] = target: Delta-type opioid receptor (Homo sapiens) (UniProt P41143); conditions: Compound concentration 10.0 uM
[13] = target: Dual specificity tyrosine-phosphorylation-regulated kinase 1B (Homo sapiens, UniProt Q9Y463); assay: NanoBRET (SGC Frankfurt) (DYRK1B)
D(1A) dopamine receptor = D(1A) dopamine receptor (Homo sapiens, UniProt P21728); conditions: Compound concentration 10.0 uM
[14] = target: Sodium-dependent noradrenaline transporter (Homo sapiens) (UniProt P23975); conditions: Compound concentration 10.0 uM
[15] = target: T1, GABA-A receptor; anion channel (Rattus norvegicus) (UniProt O09028+P15431+P18506+P18508+P19969+P20236+P23574+P23576+P28471+P28473+P30191+P62813+P63079+P63138+Q91ZM7+Q9ES14); conditions: Compound concentration 10.0 uM
[16] = target: Sigma non-opioid intracellular receptor 1 (Homo sapiens, UniProt Q99720); conditions: Compound concentration 10.0 uM
Histamine H1 receptor [17] = target: T2, Histamine H1 receptor (Homo sapiens, UniProt P35367); assay: GPCRScan assay: inhibition of H1; design: radioligand conc. used [nm] 0.6 – 2.0, parental cells stable HEK
D(2) dopamine receptor = D(2) dopamine receptor (Homo sapiens, UniProt P14416); conditions: Compound concentration 10.0 uM
[18] = target: D(4) dopamine receptor (Homo sapiens) (UniProt P21917); conditions: Compound concentration 10.0 uM
[19] = target: 5-hydroxytryptamine receptor 2C (Homo sapiens) (UniProt P28335); conditions: Compound concentration 10.0 uM
[20] = target: Alpha-2A adrenergic receptor (Homo sapiens) (UniProt P08913); conditions: Compound concentration 10.0 uM
[21] = target: Muscarinic acetylcholine receptor M2 (Homo sapiens) (UniProt P08172); conditions: Compound concentration 10.0 uM
[22] = target: Receptor-type tyrosine-protein kinase FLT3 (Homo sapiens, UniProt P36888, D835V); assay: NanoBRET (SGC Frankfurt) (FLT3 (D835V))
[23] = target: Serine/threonine-protein kinase SIK2 (Homo sapiens, UniProt Q9H0K1); assay: NanoBRET (SGC Frankfurt) (SIK2)
[24] = target: 5-hydroxytryptamine receptor 7 (Homo sapiens) (UniProt P34969); conditions: Compound concentration 10.0 uM
[25] = target: Kappa-type opioid receptor (Homo sapiens, UniProt P41145); conditions: Compound concentration 10.0 uM
[26] = target: 5-hydroxytryptamine receptor 5A (Homo sapiens, UniProt P47898); conditions: Compound concentration 10.0 uM
[27] = target: Dual specificity protein kinase CLK1 (Homo sapiens, UniProt P49759); assay: NanoBRET (SGC Frankfurt) (CLK1)
[28] = target: Alpha-2C adrenergic receptor (Homo sapiens) (UniProt P18825); conditions: Compound concentration 10.0 uM
[29] = target: 5-hydroxytryptamine receptor 1D (Homo sapiens, UniProt P28221); conditions: Compound concentration 10.0 uM
[30] = target: 5-hydroxytryptamine receptor 1B (Homo sapiens, UniProt P28222); conditions: Compound concentration 10.0 uM
[31] = target: Alpha-1A adrenergic receptor (Homo sapiens) (UniProt P35348); conditions: Compound concentration 10.0 uM
[32] = target: Receptor-type tyrosine-protein kinase FLT3 (Homo sapiens, UniProt P36888); assay: NanoBRET (SGC Frankfurt) (FLT3)
[33] = target: D(1B) dopamine receptor (Homo sapiens) (UniProt P21918); conditions: Compound concentration 10.0 uM
Histamine H2 receptor = Histamine H2 receptor (Homo sapiens, UniProt P25021); conditions: Compound concentration 10.0 uM
[34] = target: T1, GABA-A receptor; anion channel (Rattus norvegicus); conditions: Compound concentration 10.0 uM; remark: listed apart in the source
Histamine H1 receptor [35] = target: T2, Histamine H1 receptor; conditions: Compound concentration 10.0 uM
[36] = target: Muscarinic acetylcholine receptor M4 (Homo sapiens) (UniProt P08173); conditions: Compound concentration 10.0 uM
[37] = target: Dual specificity protein kinase CLK4 (Homo sapiens, UniProt Q9HAZ1); assay: NanoBRET (SGC Frankfurt) (CLK4)
[38] = target: Sodium-dependent serotonin transporter (Homo sapiens) (UniProt P31645); conditions: Compound concentration 10.0 uM
[39] = target: Alpha-2B adrenergic receptor (Homo sapiens) (UniProt P18089); conditions: Compound concentration 10.0 uM

T2 sequence (P35367 whole entry): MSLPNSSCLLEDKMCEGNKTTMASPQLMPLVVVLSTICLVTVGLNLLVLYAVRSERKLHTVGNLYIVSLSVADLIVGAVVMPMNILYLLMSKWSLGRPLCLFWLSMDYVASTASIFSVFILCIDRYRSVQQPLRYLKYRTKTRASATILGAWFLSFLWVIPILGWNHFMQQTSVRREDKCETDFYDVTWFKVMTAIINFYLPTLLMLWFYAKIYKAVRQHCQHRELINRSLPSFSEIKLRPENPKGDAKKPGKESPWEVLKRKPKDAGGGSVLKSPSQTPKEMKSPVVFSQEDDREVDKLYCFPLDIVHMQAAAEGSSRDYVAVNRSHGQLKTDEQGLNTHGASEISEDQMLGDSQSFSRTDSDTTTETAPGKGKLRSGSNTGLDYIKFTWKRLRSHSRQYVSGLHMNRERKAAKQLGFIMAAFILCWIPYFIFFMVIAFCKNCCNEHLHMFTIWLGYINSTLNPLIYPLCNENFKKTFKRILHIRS
Muscarinic acetylcholine receptor M4 (Homo sapiens), sequence (P08173 whole entry): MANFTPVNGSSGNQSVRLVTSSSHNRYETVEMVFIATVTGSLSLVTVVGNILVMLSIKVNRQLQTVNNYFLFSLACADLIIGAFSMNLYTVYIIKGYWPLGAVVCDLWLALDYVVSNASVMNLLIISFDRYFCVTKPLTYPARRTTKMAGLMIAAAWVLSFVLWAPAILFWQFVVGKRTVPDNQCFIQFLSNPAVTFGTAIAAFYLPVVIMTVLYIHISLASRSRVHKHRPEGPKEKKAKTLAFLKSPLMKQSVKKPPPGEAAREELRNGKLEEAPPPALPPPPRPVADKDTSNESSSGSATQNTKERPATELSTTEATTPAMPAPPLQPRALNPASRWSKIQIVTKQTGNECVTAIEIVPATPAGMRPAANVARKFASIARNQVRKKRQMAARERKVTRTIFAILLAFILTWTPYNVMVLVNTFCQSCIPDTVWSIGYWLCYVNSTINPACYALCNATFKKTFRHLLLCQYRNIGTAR
Alpha-1B adrenergic receptor (Homo sapiens), sequence (P35368 whole entry): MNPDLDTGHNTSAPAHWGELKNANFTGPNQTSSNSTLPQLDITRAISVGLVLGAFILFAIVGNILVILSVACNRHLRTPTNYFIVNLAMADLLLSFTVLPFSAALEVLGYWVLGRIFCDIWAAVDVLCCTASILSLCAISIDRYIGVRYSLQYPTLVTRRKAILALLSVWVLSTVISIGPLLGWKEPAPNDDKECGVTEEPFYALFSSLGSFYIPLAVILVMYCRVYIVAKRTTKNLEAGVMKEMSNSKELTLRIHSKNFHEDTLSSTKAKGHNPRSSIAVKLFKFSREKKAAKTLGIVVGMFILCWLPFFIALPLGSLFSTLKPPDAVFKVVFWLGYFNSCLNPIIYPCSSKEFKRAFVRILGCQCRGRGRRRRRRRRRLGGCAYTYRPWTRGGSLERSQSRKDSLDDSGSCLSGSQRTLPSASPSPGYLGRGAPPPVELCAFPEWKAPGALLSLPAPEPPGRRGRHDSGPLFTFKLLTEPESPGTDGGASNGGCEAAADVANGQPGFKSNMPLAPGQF
Sigma non-opioid intracellular receptor 1, sequence (Q99720 whole entry): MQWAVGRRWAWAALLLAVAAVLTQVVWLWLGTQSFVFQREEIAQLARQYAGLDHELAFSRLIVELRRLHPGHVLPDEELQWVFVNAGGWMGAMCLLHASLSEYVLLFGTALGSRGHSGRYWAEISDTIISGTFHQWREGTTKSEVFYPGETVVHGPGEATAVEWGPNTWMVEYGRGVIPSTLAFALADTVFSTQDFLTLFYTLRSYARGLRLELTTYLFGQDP
Histamine H4 receptor (Homo sapiens), sequence (Q9H3N8 whole entry): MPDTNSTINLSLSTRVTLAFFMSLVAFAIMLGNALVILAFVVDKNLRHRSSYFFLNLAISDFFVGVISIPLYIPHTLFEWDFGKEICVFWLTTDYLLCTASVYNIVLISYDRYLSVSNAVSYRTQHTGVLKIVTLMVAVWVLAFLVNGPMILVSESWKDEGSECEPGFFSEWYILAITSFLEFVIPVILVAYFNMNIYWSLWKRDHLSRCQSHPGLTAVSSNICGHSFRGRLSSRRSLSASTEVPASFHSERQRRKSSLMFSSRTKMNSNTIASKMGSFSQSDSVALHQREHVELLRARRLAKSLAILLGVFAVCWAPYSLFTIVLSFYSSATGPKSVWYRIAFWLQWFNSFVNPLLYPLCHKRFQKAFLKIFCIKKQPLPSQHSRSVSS
D(1B) dopamine receptor (Homo sapiens), sequence (P21918 whole entry): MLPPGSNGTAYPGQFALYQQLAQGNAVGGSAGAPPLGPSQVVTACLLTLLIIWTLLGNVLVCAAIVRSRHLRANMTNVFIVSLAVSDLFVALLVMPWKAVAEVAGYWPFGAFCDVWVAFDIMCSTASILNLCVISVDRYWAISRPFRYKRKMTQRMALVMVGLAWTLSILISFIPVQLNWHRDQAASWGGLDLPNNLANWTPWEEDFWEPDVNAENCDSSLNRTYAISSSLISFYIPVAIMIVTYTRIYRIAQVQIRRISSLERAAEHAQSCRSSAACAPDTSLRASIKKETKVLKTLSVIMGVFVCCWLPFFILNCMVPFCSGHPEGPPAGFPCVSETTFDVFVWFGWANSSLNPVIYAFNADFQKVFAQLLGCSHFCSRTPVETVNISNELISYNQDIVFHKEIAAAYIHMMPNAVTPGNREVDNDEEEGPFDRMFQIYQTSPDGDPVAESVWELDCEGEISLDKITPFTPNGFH
5-hydroxytryptamine receptor 1D, sequence (P28221 whole entry): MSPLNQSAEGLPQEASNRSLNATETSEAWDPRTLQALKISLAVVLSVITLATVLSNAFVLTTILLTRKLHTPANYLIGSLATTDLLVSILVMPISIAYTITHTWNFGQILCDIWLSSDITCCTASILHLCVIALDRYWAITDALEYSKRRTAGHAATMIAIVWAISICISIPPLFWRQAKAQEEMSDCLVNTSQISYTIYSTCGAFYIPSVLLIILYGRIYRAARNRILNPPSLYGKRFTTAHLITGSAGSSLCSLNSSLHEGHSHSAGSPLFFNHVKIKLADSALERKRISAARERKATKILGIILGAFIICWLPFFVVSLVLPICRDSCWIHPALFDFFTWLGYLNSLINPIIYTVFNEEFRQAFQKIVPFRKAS
5-hydroxytryptamine receptor 2B (Homo sapiens), sequence (P41595 whole entry): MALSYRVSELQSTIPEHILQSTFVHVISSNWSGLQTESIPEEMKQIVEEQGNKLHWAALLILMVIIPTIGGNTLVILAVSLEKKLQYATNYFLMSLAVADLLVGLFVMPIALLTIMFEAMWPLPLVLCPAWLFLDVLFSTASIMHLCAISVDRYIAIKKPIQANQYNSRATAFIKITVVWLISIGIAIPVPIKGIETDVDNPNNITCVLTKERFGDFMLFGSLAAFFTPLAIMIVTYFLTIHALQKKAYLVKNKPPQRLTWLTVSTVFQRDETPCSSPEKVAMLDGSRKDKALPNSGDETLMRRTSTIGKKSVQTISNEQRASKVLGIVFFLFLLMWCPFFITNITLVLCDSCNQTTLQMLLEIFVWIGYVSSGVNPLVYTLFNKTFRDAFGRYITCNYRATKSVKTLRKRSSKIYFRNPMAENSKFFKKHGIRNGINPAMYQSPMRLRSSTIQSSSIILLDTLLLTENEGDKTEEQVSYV
Histamine H3 receptor (Homo sapiens), sequence (Q9Y5N1 whole entry): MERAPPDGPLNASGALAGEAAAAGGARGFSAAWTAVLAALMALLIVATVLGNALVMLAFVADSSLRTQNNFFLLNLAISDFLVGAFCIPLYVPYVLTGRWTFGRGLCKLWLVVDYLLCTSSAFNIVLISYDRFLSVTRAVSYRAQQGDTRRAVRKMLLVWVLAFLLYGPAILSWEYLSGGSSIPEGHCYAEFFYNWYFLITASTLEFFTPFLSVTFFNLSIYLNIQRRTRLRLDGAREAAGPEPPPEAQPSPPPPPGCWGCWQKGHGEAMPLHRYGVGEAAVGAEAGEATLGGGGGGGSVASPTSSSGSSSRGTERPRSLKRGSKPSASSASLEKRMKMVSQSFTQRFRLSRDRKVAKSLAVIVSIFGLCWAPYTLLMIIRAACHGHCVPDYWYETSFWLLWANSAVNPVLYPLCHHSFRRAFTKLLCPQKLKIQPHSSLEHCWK
D(4) dopamine receptor (Homo sapiens), sequence (P21917 whole entry): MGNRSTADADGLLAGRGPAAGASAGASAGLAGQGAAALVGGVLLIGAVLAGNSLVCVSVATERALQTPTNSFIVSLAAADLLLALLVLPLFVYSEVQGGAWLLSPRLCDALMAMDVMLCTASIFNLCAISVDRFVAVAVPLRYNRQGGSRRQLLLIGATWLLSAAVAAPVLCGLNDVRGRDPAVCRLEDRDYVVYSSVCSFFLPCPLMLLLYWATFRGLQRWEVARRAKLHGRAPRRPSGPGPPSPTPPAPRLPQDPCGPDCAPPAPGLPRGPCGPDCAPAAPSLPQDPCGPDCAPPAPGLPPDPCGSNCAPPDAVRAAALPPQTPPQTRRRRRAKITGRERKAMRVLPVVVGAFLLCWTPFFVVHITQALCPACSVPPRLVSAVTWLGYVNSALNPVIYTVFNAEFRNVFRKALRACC
Sodium-dependent noradrenaline transporter (Homo sapiens), sequence (P23975 whole entry): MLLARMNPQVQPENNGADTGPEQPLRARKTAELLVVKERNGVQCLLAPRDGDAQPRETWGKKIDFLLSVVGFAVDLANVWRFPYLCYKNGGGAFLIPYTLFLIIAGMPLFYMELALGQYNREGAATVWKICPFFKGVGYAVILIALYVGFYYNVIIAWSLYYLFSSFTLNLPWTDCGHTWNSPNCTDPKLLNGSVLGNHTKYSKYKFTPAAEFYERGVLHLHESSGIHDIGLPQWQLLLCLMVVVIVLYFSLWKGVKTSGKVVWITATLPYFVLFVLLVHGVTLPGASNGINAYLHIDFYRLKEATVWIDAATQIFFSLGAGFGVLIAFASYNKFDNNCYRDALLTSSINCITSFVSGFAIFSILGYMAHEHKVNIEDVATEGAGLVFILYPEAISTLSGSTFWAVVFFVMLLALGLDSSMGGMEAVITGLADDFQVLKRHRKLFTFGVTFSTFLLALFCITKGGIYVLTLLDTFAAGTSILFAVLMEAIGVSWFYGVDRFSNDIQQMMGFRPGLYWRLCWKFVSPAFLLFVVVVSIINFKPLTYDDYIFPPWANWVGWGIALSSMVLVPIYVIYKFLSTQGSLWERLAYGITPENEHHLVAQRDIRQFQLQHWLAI

## CN1CCN(C(=O)C(C)(C)c2ccc(C(=O)Nc3cn4cc(-c5cc(C(C)(C)C)cc(C(C)(C)C)c5)ccc4n3)cc2)CC1 [T3-CLK-N]
[1]
  IC50: > 10 µM (not active)
[2]
  inhibition: 50.5%
[3]
  inhibition: 31.9%
[4]
  inhibition: 40.4%
[5]
  inhibition: 30.8%
[6]
  inhibition: 17.2%
D(3) dopamine receptor
  inhibition: 78.9%
[7]
  inhibition: 43.8%
[8]
  inhibition: 44.1%
Mu-type opioid receptor
  inhibition: 55.7%
[9]
  inhibition: 97.9%
[10]
  inhibition: -0.51%
[11]
  inhibition: 92.3%
[12]
  inhibition: 46.2%
[13]
  IC50: > 10 µM (not active)
D(1A) dopamine receptor
  inhibition: 58.2%
[14]
  inhibition: 40.8%
[15]
  inhibition: 13.5%
[16]
  inhibition: 90%
Histamine H1 receptor [17]; read-out: Ki
  Ki: 1.9 µM
Histamine H1 receptor [17]; read-out: pKi (converted)
  Ki: 1.32 µM
D(2) dopamine receptor
  inhibition: 57.5%
[18]
  inhibition: 34.8%
[19]
  inhibition: 83%
[20]
  inhibition: 83.7%
[21]
  inhibition: 6.55%
[22]
  IC50: > 10 µM (not active)
[23]
  IC50: > 10 µM (not active)
[24]
  inhibition: 45.2%
[25]
  inhibition: 54.4%
[26]
  inhibition: 83.2%
[27]
  IC50: > 10 µM (not active)
[28]
  inhibition: 88.5%
[29]
  inhibition: 50.5%
[30]
  inhibition: 66.9%
[31]
  inhibition: 66.4%
[32]
  IC50: > 10 µM (not active)
[33]
  inhibition: 29.7%
Histamine H2 receptor
  inhibition: 86.8%
[34]
  inhibition: 4.08%
Histamine H1 receptor [35]
  inhibition: 83%
[36]
  inhibition: 0.99%
[37]
  IC50: > 10 µM (not active)
[38]
  inhibition: 26.3%
[39]
  inhibition: 77.6%

## CN1CCN(C(=O)C(C)(C)c2ccc(C(=O)Nc3cn4cc(-c5ccncc5)ccc4n3)cc2)CC1 [T3-CLK]
[1]
  IC50: 0.032 µM
[2]
  inhibition: 4.68%
[3]
  inhibition: 0.74%
[4]
  inhibition: 21.1%
[5]
  inhibition: 9.31%
[6]
  inhibition: 16.6%
D(3) dopamine receptor
  inhibition: 12.8%
[7]
  inhibition: 16.6%
[8]
  inhibition: -7.63%
Mu-type opioid receptor
  inhibition: 5.33%
[9]
  inhibition: 13.4%
[10]
  inhibition: 8.33%
[11]
  inhibition: -2.63%
[12]
  inhibition: 4.05%
[13]
  IC50: 0.067 µM
D(1A) dopamine receptor
  inhibition: 4.41%
[14]
  inhibition: 5.3%
[15]
  inhibition: 7.47%
[16]
  inhibition: 16.9%
Histamine H1 receptor [17]; read-out: Ki
  Ki: 2.15 µM
D(2) dopamine receptor
  inhibition: 10.8%
[18]
  inhibition: 9.12%
[19]
  inhibition: 12.4%
[20]
  inhibition: 2.61%
[21]
  inhibition: 3.82%
[22]
  IC50: 0.138 µM (not active)
[23]
  IC50: 0.125 µM (not active)
[24]
  inhibition: -5.21%
[25]
  inhibition: -6.32%
[26]
  inhibition: 4%
[27]
  IC50: 0.00349 µM (active)
[28]
  inhibition: 17.2%
[29]
  inhibition: 5.95%
[30]
  inhibition: 7.83%
[31]
  inhibition: -5.18%
[32]
  IC50: 0.668 µM (not active)
[33]
  inhibition: -7.3%
Histamine H2 receptor
  inhibition: 19.4%
[34]
  inhibition: -5.11%
Histamine H1 receptor [35]
  inhibition: 54.9%
[36]
  inhibition: 25.2%
[37]
  IC50: 0.00198 µM (active)
[38]
  inhibition: -3.55%
[39]
  inhibition: 19.3%
